Laboratory results published in US20100099698A1, “Compositions for Improving Skin Conditions Comprising Matrine or Its Oxidized Derivatives” (Biospectrum Inc., priority 2007, published 2010).

Columns and labels:
[1] = test system: B16 mouse melanoma cells; assay: Inhibition of melanin production in melanoma cells; format: cell-based; details: 72 h, 100 μM, 3 days, read-out: Inhibitory rate of melanin production (%)
Description: After measuring the inhibition of melanin production by matrine and oxymatrine using B16 mouse melanoma cells (Korean Cell Line Bank), the measurement was compared with that for the inhibition of melanin production by arbutin, known as a melanin production inhibitor.
B16 mouse melanoma cells F10 (Korean Cell Line Bank) were seeded into each well of a 6-well plate (1×10^5 cells/well) in DMEM (Dulbecco's modified Eagle's media) containing 10% FBS (fetal bovine serum) and the cells were cultured to about more than 80% confluence by incubating in a CO2 incubator under conditions of 37° C. and 5.0% CO2. After cultivation, the medium was removed and samples were replaced in medium diluted at suitable concentration, followed by incubating for 3 days under conditions of 37° C. and 5.0% CO2. […] The cells removing medium were washed with PBS (phosphate buffer saline) and treated with trypsin to collect cells. Number of the collected cells was calculated using hematocytometer (Tiefe Depth Profondeur 0.100 mm, Paul Marienfeld GmbH & Co. KG, D.E), centrifuged at 5,000 to 10,000 rpm for 10 min and the supernatant was eliminated, thereby obtaining pellets. This cell pellets were dried at 60° C., 100 μl of 1M NaOH containing 10% DMSO was added to thereto, and intracellular melanin was obtained in incubator at 60° C. Then, the cell solution was measured for absorbance at 490 nm using microplate reader (Bio-Tek ELx8081U, U.S) and the amount of melanin per cell constant number was estimated.

[2] = molecular target: T1, tyrosinase (Mus musculus, UniProt P11344); assay: Inhibition of intracellular tyrosinase activity in melanoma cells; format: cell-based, Murine; details: B16-F1; 100 μM, 3 days, B-16 F1 cells; read-out: Inhibitory rate of intracellular tyrosinase activity (%)
T1 construct: This cell pellets were lysated using lysis buffer, centrifuged at 12,000 rpm for 10 min and the supernatant was collected; endogenous in cells; host or cells: B16 F1 mouse melanoma cells (Korean Cell Line Bank)
T1 sequence (P11344 19-533): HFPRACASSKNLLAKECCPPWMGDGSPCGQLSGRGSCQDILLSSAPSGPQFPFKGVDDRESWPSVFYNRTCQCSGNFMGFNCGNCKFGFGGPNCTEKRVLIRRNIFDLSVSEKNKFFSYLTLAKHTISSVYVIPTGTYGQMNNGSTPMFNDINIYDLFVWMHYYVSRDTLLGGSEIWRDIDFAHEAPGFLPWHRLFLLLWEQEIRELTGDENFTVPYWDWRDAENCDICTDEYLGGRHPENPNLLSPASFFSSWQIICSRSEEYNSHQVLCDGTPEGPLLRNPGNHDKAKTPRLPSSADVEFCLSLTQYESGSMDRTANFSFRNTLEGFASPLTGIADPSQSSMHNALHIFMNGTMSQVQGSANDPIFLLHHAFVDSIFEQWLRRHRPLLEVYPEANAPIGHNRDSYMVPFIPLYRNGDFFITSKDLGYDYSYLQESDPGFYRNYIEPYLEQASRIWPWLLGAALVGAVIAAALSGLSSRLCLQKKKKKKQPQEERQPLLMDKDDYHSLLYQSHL
Description: After measuring the inhibition of melanin production by matrine and oxymatrine using B16 mouse melanoma cells (Korean Cell Line Bank), the measurement was compared with that for the inhibition of intracellular tyrosinase activities by arbutin, known as a melanin production inhibitor.
Murine melanoma (B-16 F1) cells were seeded into each well of a 6-well plate (1×10^5 cells/well) in DMEM containing 10% FBS (fetal bovine serum) and the cells were cultured to about more than 80% adherence by incubating in a CO2 incubator under conditions of 37° C. and 5.0% CO2. After cultivation, the medium was removed and samples were replaced in medium diluted at suitable concentration, followed by incubating for 3 days under conditions of 37° C. and 5.0% CO2. […] The cells removing medium were washed with PBS (phosphate buffer saline) and treated with trypsin to collect cells. Number of the collected cells was calculated using hematocytometer, centrifuged at 5,000 to 10,000 rpm for 10 min and the supernatant was eliminated, thereby obtaining pellets. This cell pellets were lysated using lysis buffer, centrifuged at 12,000 rpm for 10 min and the supernatant was collected. Then, the cell solution was measured for absorbance at 492 nm using microplate reader and the activity of tyrosinase per cell constant number was estimated.

[3] = test system: pigmentation of skin; assay: Skin whitening of UV-induced pigmentation, chromameter L* value; format: in vivo, brown guinea pigs; details: 1.0 %, topical once or twice a day for 50 days, UV-pigmented abdominal skin
Description: A whitening effect of matrine and oxymatrine was measured using brown guinea pigs (Charles River Laboratories, Inc.), known to increase its pigmentation upon exposure to ultraviolet light, like in humans. To cause pigmentation in the brown guinea pig by ultraviolet (UV), aluminum foil with square windows of 3×3 cm^2 was adhered to hair-removed abdominal skin of brown guinea pig, and then UV light was irradiated thereon with a SE lamp (wavelength 290-320 nm, Toshiba) (total irradiation energy=1350 mJ/cm^2). After UV irradiation, the aluminum foil was removed and samples (matrine, oxymatrine or albutin) were applied as the following method. […] From the maximum, samples were applied. Applications performed once or twice a day for 50 days. […] The control with only the solvent was applied to another site. Occurrence of cumulative irritation also was examined. The degree of pigmentation of skin was determined using a chromameter (CR2002, MINOLTA, JP) to estimate the effects of applied samples. L*a*b* colorimetric system was used to classify color and L* value was used as standard in the present invention. The L* value was corrected using white board standard and was measured more than five times at one site, repeatedly. Pigmentation was evenly distributed. Skin color differences (ΔL*) between application initial point and application terminal point were obtained and then using these values, their effects of the applied samples were estimated. ΔL*=L* value at […] after application-L* value at application initial day. Equation 1 ΔL* values were obtained both at sample application site and control application site and compared, whereby the effects of the whitening substances can be estimated.

inhibition at 100 µM [2]: 29%
SMILES: OC[C@H]1O[C@@H](Oc2ccc(O)cc2)[C@H](O)[C@@H](O)[C@@H]1O [Albutin, arbutin, reference compound]
inhibition at 100 µM [1]: 26%
Whitening effects (ΔL) [3]: 0.49
